For 38 compounds, IC50 results are on record in patent publication US9056832B2, “Pyridine compounds and the users thereof” (Purdue Pharma L.P., priority 2010, dated 2015).

human Nav1.7, sequence (Q15858 other isoform, or with tags, fused parts or gaps): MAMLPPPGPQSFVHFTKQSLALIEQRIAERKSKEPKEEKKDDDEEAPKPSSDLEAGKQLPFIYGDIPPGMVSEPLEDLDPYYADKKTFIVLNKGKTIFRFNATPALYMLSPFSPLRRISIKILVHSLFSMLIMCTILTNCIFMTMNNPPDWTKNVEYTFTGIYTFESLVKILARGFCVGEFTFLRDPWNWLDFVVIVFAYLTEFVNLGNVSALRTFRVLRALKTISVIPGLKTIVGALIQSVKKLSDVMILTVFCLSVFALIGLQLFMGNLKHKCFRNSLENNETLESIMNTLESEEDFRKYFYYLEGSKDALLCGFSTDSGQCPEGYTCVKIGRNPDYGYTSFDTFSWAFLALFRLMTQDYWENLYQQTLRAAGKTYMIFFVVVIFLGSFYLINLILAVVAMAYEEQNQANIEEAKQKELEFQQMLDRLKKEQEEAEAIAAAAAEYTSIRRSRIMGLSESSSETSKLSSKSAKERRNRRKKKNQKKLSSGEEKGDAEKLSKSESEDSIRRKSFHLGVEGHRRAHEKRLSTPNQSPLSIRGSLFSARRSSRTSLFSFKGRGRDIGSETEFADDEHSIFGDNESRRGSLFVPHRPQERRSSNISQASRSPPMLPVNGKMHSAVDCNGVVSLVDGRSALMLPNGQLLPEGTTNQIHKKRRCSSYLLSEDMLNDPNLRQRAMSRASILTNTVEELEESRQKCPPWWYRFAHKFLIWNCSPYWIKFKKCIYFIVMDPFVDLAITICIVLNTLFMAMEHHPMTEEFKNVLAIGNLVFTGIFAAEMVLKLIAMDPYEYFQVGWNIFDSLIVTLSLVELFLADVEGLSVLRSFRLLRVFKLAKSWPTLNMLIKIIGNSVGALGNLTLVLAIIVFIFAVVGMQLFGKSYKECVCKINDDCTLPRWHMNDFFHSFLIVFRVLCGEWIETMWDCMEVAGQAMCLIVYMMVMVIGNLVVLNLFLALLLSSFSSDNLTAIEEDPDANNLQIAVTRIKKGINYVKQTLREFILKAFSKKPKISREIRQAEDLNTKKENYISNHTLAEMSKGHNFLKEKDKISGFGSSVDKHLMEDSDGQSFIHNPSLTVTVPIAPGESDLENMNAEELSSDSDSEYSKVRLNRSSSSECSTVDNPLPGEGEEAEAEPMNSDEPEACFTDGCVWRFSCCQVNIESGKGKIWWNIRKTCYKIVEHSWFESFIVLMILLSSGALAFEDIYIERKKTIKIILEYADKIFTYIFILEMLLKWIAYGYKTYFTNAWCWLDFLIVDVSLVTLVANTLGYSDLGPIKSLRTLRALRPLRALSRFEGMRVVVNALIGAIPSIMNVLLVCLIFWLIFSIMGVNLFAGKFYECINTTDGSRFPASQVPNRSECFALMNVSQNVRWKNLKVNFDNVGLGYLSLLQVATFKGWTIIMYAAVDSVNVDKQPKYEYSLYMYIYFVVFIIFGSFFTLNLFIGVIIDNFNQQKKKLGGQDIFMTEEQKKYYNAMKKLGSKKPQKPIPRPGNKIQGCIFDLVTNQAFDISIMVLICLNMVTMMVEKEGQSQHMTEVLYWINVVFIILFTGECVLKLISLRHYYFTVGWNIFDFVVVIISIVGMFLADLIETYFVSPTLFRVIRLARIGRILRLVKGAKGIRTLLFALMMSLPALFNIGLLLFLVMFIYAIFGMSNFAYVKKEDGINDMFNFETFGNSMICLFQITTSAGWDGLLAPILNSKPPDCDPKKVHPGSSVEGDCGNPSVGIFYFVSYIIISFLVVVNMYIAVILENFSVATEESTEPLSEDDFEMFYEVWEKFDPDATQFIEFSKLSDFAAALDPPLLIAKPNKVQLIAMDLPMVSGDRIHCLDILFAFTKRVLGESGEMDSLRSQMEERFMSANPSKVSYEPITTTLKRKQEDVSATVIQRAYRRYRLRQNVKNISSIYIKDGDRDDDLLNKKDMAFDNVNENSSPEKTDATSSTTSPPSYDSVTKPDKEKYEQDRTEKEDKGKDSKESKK

The first assay concerns the target human Nav1.7 (Homo sapiens (Human), UniProt Q15858). The assay is described as follows: FLIPR or FLIPR TETRA sodium dye assay with KCl and test article pre-incubation. It counts as cell-based. As to conditions: read-out: Nav1.7 IC50 (μM) ± SEM.
Take `OCC(O)c1cccc(-c2ccc(Oc3ccc(C(F)(F)F)cc3)cc2)n1` (centres unmarked) [compound 3, 1-(6-(4-(4-(trifluoromethyl)phenoxy)phenyl)pyridin-2-yl)ethane-1,2-diol]: the IC50 (as a rule, the concentration at which inhibition is half-maximal) was determined as 0.07 ± 0.01 µM.

As to `OC[C@@H](O)c1cccc(-c2ccc(Oc3ccc(C(F)(F)F)cc3)cc2)n1` [compound 4, (S)-1-(6-(4-(4-(trifluoromethyl)phenoxy)phenyl)pyridin-2-yl)ethane-1,2-diol], the IC50 is 0.12 ± 0.02 µM.

For the compound `N#Cc1ccc(Oc2ccc(-c3cccc([C@H](O)CO)n3)cc2)cc1` [compound 6, (S)-4-(4-(6-(1,2-dihydroxyethyl)pyridin-2-yl)phenoxy)benzonitrile], the IC50 was 0.27 ± 0.05 µM.

As for `N#Cc1ccc(Oc2ccc(-c3cccc(C(O)CO)n3)cc2)cc1` (centres unmarked) [compound 8, 4-(4-(6-(1,2-dihydroxyethyl)pyridin-2-yl)phenoxy) benzonitrile], the IC50 came out at 0.47 ± 0.09 µM.

As for `N#Cc1ccc(Oc2ccc(-c3cccc(C(O)CO)n3)cc2)c(C(F)(F)F)c1` (centres unmarked) [compound 9, 4-(4-(6-(1,2-dihydroxyethyl)pyridin-2-yl)phenoxy)-3-(trifluoromethyl) benzonitrile], the IC50 came to 0.5 ± 0.18 µM.

Take `N#Cc1ccc(Oc2ccc(-c3cccc([C@@H](O)CO)n3)cc2)c(C(F)(F)F)c1` [compound 11, (R)-4-(4-(6-(1,2-dihydroxyethyl)pyridin-2-yl)phenoxy)-3-(trifluoromethyl) benzonitrile]: the IC50 is 0.82 ± 0.09 µM.

As to `N#Cc1cc(Oc2ccc(-c3cccc(C(O)CO)n3)cc2)ccc1C(F)(F)F` (centres unmarked) [compound 12, 5-(4-(6-(1,2-dihydroxyethyl)pyridin-2-yl)phenoxy)-2-(trifluoromethyl) benzonitrile], the IC50 turned out to be 0.89 ± 0.02 µM.

Turning to `N#Cc1ccc(Oc2ccc(-c3cccc([C@@H](O)CO)n3)cc2)cc1` [compound 13, (R)-4-(4-(6-(1,2-dihydroxyethyl)pyridin-2-yl)phenoxy) benzonitrile], the IC50 is 0.89 ± 0.08 µM.

`N#Cc1cc(Oc2ccc(-c3cccc([C@@H](O)CO)n3)cc2)ccc1C(F)(F)F` [compound 14, (R)-5-(4-(6-(1,2-dihydroxyethyl)pyridin-2-yl)phenoxy)-2-(trifluoromethyl) benzonitrile]: the IC50 is 1.3 ± 0.3 µM.

As for `N#Cc1ccc(Oc2ccc(-c3cccc([C@H](O)CO)n3)cc2)c(C(F)(F)F)c1` [compound 22, (S)-4-(4-(6-(1,2-dihydroxyethyl)pyridin-2-yl)phenoxy)-3-(trifluoromethyl) benzonitrile], the IC50 was determined as 3.33 ± 0.2 µM.

`N#Cc1ccc(Oc2ccc(-c3cc([C@H](O)CO)cc(C(N)=O)n3)cc2)cc1C(F)(F)F` [compound 31, (S)-6-(4-(4-cyano-3-(trifluoromethyl)phenoxy)phenyl)-4-(1,2-dihydroxyethyl) picolinamide]: the IC50 was 0.61 ± 0.1 µM.

With `N#Cc1ccc(Oc2ccc(-c3cc([C@H](O)CO)cc(C(N)=O)n3)cc2)c(C(F)(F)F)c1` [compound 35, (S)-6-(4-(4-cyano-2-(trifluoromethyl)phenoxy)phenyl)-4-(1,2-dihydroxyethyl) picolinamide], the IC50 was 0.4 ± 0.07 µM.

Regarding `N#Cc1ccc(Oc2ccc(-c3cc([C@@H](O)CO)cc(C(N)=O)n3)cc2)c(C(F)(F)F)c1` [compound 36, (R)-6-(4-(4-cyano-2-(trifluoromethyl)phenoxy)phenyl)-4-(1,2-dihydroxyethyl) picolinamide], the IC50 is 0.22 ± 0.04 µM.

Turning to `N#CCCN(c1ccccc1)c1cc(C(N)=O)nc(-c2ccc(Oc3ccc(F)cc3)cc2)c1` [compound 44, 4-((2-cyanoethyl)(phenyl)amino)-6-(4-(4-fluorophenoxy)phenyl) picolinamide], the IC50 amounted to 3.29 ± 1.17 µM.

On to `NC(=O)c1cc(NCc2ccncc2)cc(-c2ccc(Oc3ccc(F)cc3)cc2)n1` [compound 46, 6-(4-(4-fluorophenoxy)phenyl)-4-((pyridin-4-ylmethyl)amino) picolinamide], for which the IC50 turned out to be 0.48 ± 0.07 µM.

Still in this assay, the particulars now being: recombinant human Nav1.7 in HEK293 cells; CoroNa Green sodium dye; veratridine + scorpion venom; read-out: Nav1.7 IC50 (μM) ± SEM.
For the compound `CC(C)NC(=O)N1CCN(c2cc(-c3ccc(Oc4ccc(F)cc4)cc3)nc([C@@H](O)CO)c2)CC1` [compound 7, (R)-4-(2-(1,2-dihydroxyethyl)-6-(4-(4-fluorophenoxy)phenyl)pyridin-4-yl)-N-isopropyl piperazine-1-carboxamide], the IC50 is 0.32 ± 0.02 µM.

Turning to `N#Cc1cc(C(F)(F)F)ccc1Oc1ccc(-c2cccc(C(O)CO)n2)cc1` (centres unmarked) [compound 10, 2-(4-(6-(1,2-dihydroxyethyl)pyridin-2-yl)phenoxy)-5-(trifluoromethyl) benzonitrile], the IC50 amounted to 0.52 ± 0.11 µM.

In the case of `OCC(O)c1cccc(-c2ccc(Oc3ncc(C(F)(F)F)cc3Cl)cc2)n1` (centres unmarked) [compound 15, 1-(6-(4-((3-chloro-5-(trifluoromethyl)pyridin-2-yl)oxy)phenyl)pyridin-2-yl) ethane-1,2-diol], the IC50 was 1.42 ± 0.24 µM.

Regarding `OCC(O)c1cccc(-c2ccc(Oc3ccc(C(F)(F)F)cn3)cc2)n1` (centres unmarked) [compound 16, 1-(6-(4-((5-(trifluoromethyl)pyridin-2-yl)oxy)phenyl)pyridin-2-yl) ethane-1,2-diol], the IC50 worked out at 1.71 ± 0.24 µM.

As for `Cc1ccc(Oc2ccc(-c3cccc(C(O)CO)n3)cc2)cn1` (centres unmarked) [compound 17, 1-(6-(4-((6-methylpyridin-3-yl)oxy)phenyl)pyridin-2-yl)ethane-1,2-diol], the IC50 is 2.77 ± 0.41 µM.

On to `CC(=O)c1ccc(Oc2ccc(-c3cccc(C(O)CO)n3)cc2)c(C(F)(F)F)c1` (centres unmarked) [compound 20, 1-(4-(4-(6-(1,2-dihydroxyethyl)pyridin-2-yl)phenoxy)-3-(trifluoromethyl)phenyl)ethanone], for which the IC50 was determined as 2.95 ± 0.76 µM.

Turning to `OC[C@H](O)c1cc(N2CCNCC2)cc(-c2ccc(Oc3ccc(F)cc3)cc2)n1` [compound 21, (R)-1-(6-(4-(4-fluorophenoxy)phenyl)-4-(piperazin-1-yl)pyridin-2-yl)ethane-1,2-diol], the IC50 amounted to 2.97 ± 0.91 µM.

Take `OC[C@H](O)c1cccc(-c2ccc(Oc3ccc(C(F)(F)F)cn3)cc2)n1` [compound 23, (R)-1-(6-(4-((5-(trifluoromethyl)pyridin-2-yl)oxy)phenyl)pyridin-2-yl)ethane-1,2-diol]: the IC50 was 4.89 ± 2.48 µM.

Turning to `OC[C@@H](O)c1cccc(-c2ccc(Oc3ccc(C(F)(F)F)cn3)cc2)n1` [compound 24, (S)-1-(6-(4-((5-(trifluoromethyl)pyridin-2-yl)oxy)phenyl)pyridin-2-yl)ethane-1,2-diol], the IC50 turned out to be 6.49 ± 2.94 µM.

With `Cc1ccc(Oc2ccc(-c3cccc(C(O)CO)n3)cc2)cn1` (centres unmarked) [compound 27, 1-(6-(4-((6-methylpyridin-3-yl)oxy)phenyl)pyridin-2-yl)ethane-1,2-diol], the IC50 is over 20 µM.

Take `OCC(O)c1cccc(-c2ccc(Oc3ncccc3C(F)(F)F)cc2)n1` (centres unmarked) [compound 29, 1-(6-(4-((3-(trifluoromethyl)pyridin-2-yl)oxy)phenyl)pyridin-2-yl) ethane-1,2-diol]: the IC50 came out at 2.65 ± 0.37 µM.

As to `NC(=O)c1ccc(Oc2ccc(-c3cc([C@H](O)CO)cc(C(N)=O)n3)cc2)c(C(F)(F)F)c1` [compound 32, (S)-6-(4-(4-carbamoyl-2-(trifluoromethyl)phenoxy)phenyl)-4-(1,2-dihydroxyethyl) picolinamide], the IC50 is over 20 µM.

`N#Cc1cc(Oc2ccc(-c3cc([C@H](O)CO)cc(C(N)=O)n3)cc2)ccc1C(F)(F)F` [compound 33, (S)-6-(4-(3-cyano-4-(trifluoromethyl)phenoxy)phenyl)-4-(1,2-dihydroxyethyl) picolinamide]: the half-inhibitory concentration (IC50) is 0.5 ± 0.07 µM.

Regarding `N#Cc1cc(Oc2ccc(-c3cc([C@@H](O)CO)cc(C(N)=O)n3)cc2)ccc1C(F)(F)F` [compound 34, (R)-6-(4-(3-cyano-4-(trifluoromethyl)phenoxy)phenyl)-4-(1,2-dihydroxyethyl) picolinamide], the IC50 turned out to be 0.38 ± 0.08 µM.

As to `N#Cc1ccc(Oc2ccc(-c3cc([C@H](O)CO)cc(C(N)=O)n3)cc2)cc1` [compound 37, (S)-6-(4-(4-cyanophenoxy)phenyl)-4-(1,2-dihydroxyethyl) picolinamide], the IC50 amounted to 0.44 ± 0.1 µM.

Turning to `N#Cc1ccc(Oc2ccc(-c3cc([C@@H](O)CO)cc(C(N)=O)n3)cc2)cc1` [compound 38, (R)-6-(4-(4-cyanophenoxy)phenyl)-4-(1,2-dihydroxyethyl) picolinamide], the IC50 turned out to be 0.35 ± 0.07 µM.

With `NC(=O)c1cc([C@H](O)CO)cc(-c2ccc(Oc3cc(Cl)ccc3F)cc2)n1` [compound 39, (S)-6-(4-(5-chloro-2-fluorophenoxy)phenyl)-4-(1,2-dihydroxyethyl) picolinamide], the IC50 was determined as 0.13 ± 0.03 µM.

Consider `NC(=O)c1cc([C@H](O)CO)cc(-c2ccc(Oc3ccc(F)cc3)cc2)n1` [compound 41, (S)-4-(1,2-dihydroxyethyl)-6-(4-(4-fluorophenoxy)phenyl)picolinamide], for which the IC50 was 0.24 ± 0.04 µM.

Consider `O=C(NCCN1CCCCC1)c1cc([C@H](O)CO)cc(-c2ccc(Oc3ccc(F)cc3)cc2)n1` [compound 42, (S)-4-(1,2-dihydroxyethyl)-6-(4-(4-fluorophenoxy)phenyl)-N-(2-(piperidin-1-yl)ethyl) picolinamide], for which the IC50 was 1.25 ± 0.15 µM.

Consider `CN(c1ccccc1)c1cc(C(N)=O)nc(-c2ccc(Oc3ccc(F)cc3)cc2)c1` [compound 43, 6-(4-(4-fluorophenoxy)phenyl)-4-(methyl (phenyl)amino) picolinamide], for which the IC50 was 0.93 ± 0.17 µM.

`NC(=O)c1cc(NCc2cccnc2)cc(-c2ccc(Oc3ccc(F)cc3)cc2)n1` [compound 45, 6-(4-(4-fluorophenoxy)phenyl)-4-((pyridin-3-ylmethyl)amino) picolinamide]: the IC50 came to 0.15 ± 0.01 µM.

For the compound `NC(=O)c1cc(NCc2ccccn2)cc(-c2ccc(Oc3ccc(F)cc3)cc2)n1` [compound 47, 6-(4-(4-fluorophenoxy)phenyl)-4-((pyridin-2-ylmethyl)amino) picolinamide], the IC50 is 0.22 ± 0.06 µM.

On to `NC(=O)c1cc(NCCN2CCS(=O)(=O)CC2)cc(-c2ccc(Oc3ccc(F)cc3)cc2)n1` [compound 48, 4-((2-(1,1-dioxidothiomorpholino)ethyl)amino)-6-(4-(4-fluorophenoxy)phenyl) picolinamide], for which the IC50 was found to be 0.09 ± 0.06 µM.
